Reference: patent US20200249194A9, “PROSTATE PROTEASE NANOSENSORS AND USES THEREOF” (Massachusetts Institute of Technology, priority 2017, published 2020)
Entries after “also recorded” stand apart in the source; their conditions may differ. Non-standard residues stand in square brackets, D forms with d. Primed or numbered codes have the meaning given here. No end group written: not given here. *: point of attachment. 5FAM = O=C1OC2(c3ccc(O)cc3Oc3cc(O)ccc32)c2ccc(C(=O)*)cc21; Biotin = O=C1N[C@H]2[C@H](CS[C@H]2CCCCC(=O)*)N1; CPQ2 = quencher paired with 5FAM as FRET pair; PEG2′ = not defined here; PEG = not defined here; QSY21 = QSY21 quencher; Cy5 = Cy5 fluorophore

Experiments:
[1] = system: 15 selected proteases (MPs and SPs); Thrombin, Factor Xa and human plasma as negative filters; assay: Cleavage of FRET-paired peptide substrates (free and PEG-coupled) by recombinant proteases; assay type: biochemical
Source text: With an identified set of MPs and SPs, a panel of substrates was developed to measure their activity. A panel of 58 FRET-paired peptide substrates (labeled T1-58-Q, where Q denotes quenched Table 6) was screened for cleavage by the 15 selected proteases. To account for background cleavage in circulation, Thrombin, Factor Xa, and human plasma were included as negative filters. The library comprised peptides with diverse physiochemical properties to provide broad coverage, and kinetic parameters of cleavage of the FRET-paired substrates by recombinant proteases were measured and z-score normalized by protease. Substrates were grouped by hierarchical clustering to remove substrates with overlapping cleavage patterns, as they would not provide any orthogonal insight, resulting in a down-selected panel of 26 substrates.
For use in vivo, the peptides may be conjugated to a nanoparticle having robust accumulation in the prostate abilities. Thus, a biodistribution study was performed with three fluorophore-labeled carrier candidates and tested for their biodistribution following i.v. injection. […] Thus, the peptide substrates were conjugated to a PEG core and their cleavage profile was tested. […] Further mechanistic understanding of this variability may improve the development of ABN technology by identifying optimal surface presentation. […] Some substrates were cleaved specifically by a single protease on the biomarker list, whereas others were cleaved by multiple or all members of the enzyme family tested (Table 7).

[2] = system: PC3 cell line supernatant; assay: Cleavage of 19-plex fluorogenic ABNs in PC3 supernatant; assay type: cell-based, human; settings: for cleavage by PC3 supernatant compared with 22Rv1: in vitro, fluorogenic; for overall cleavage activity in the presence of inhibitor: PC3 supernatant, 19-plex fluorogenic ABNs
PC3 xenografts = assay: Urinary reporter signal of ABNs in PC3 xenograft-bearing mice; assay type: in vivo; settings: for relative urine signal, PC3 compared with 22Rv1: 19-plex, mass-encoded reporters, xenografts ~100 mm3; for classification of PC3-bearing from 22Rv1-bearing mice: ROC curve analysis
Protocol: Having achieved this proof-of-concept urine monitoring of protease activity with a single substrate, the entire ABN library was tested in vivo with an emphasis on identifying reporters to differentiate mice bearing more aggressive (PC3) versus less aggressive (22Rv1) xenografts. To quantify cleavage of the entire library in urine, the substrates were barcoded using a next generation of mass-encoded reporters built upon the isobar coded reporters method (Kwong et al., Nat Biotechnol 31:63-70 (2013)). This […] sensor library enables increased multiplexing by uniquely labeling each peptide with stable 13C and 15N atoms, allowing for quantitation of reporter barcodes across a large dynamic range using liquid chromatography-tandem mass spectrometry (Table 8). To account for variability in glomerular filtration rate, urine volume, and hydration state, a free reporter (not coupled to PEG) was co-injected. The 19-plex ABN library was serially injected i.v. to PC3 tumor-bearing mice over the course of tumor development. […] Next, the ability of the 19-plex library to classify PC3 from 22Rv1 tumor-bearing mice was sought to be determined. Using the mass-encoded reporters to examine the cleavage of each individual sensor, an early time point was focused on and it was observed that several substrates were differentially cleaved between animals bearing similarly sized xenografts ( 100 mm3) from the more (PC3) versus less aggressive (22Rv1) cell lines. Overall, the cleavage profile differences between the two cohorts agree with each cell line's protease expression patterns and the substrate specificity of each protease. […] To simplify urinalysis, these ABNs were designed to release biotinylated urinary reporters to enable ELISA-based readouts. […] Additionally, PSA measurements in mice may overestimate its sensitivity, as there is no mouse homolog of PSA (Lundwall et al., Biol Chem 387:243-249 (2006)). It was next tested whether the three-plex iRGD-ABNs could classify distinct prostate cancer tumors. […] Based on ROC curve analysis, the […] ABNs classified the mice bearing the more aggressive PC3-derived tumors as distinct from 22Rv1-bearing mice. […] Differential expression analysis was performed on TCGA data using […]. Survival analysis was performed using cBioPortal. SOMAscan was performed at the Beth Israel Deaconess Medical Center (BIDMC) Genomics Proteomics Core. […] Sigma) at 1 μM in PBS. • Animal Models. All animal studies were approved by Massachusetts Institute of Technology's Committee on Animal Care (CAC) (Protocol 0417-025-20). Four- to six-week-old male NCr nude mice (Taconic) were injected bilaterally with 3.5×10^6 PCa cells per flank in a 1:1 ratio of complete media and Matrigel (354234; Corning). Baseline urine measurement was obtained before xenograft implantation. Histology sectioning and staining was performed at KI Histology Core.

MMP13, uPA, KLK, MMP = assay: Substrate cleavage assay of protease nanosensors (FIG. 12A); assay type: biochemical
Protocol: Xenograft model 22Rv1 (a non-metastatic tumor, referred to as Tnon-met) is derived from a primary tumor. […] PC3 (a metastatic tumor, referred to as Tmet) is undifferentiated, AR^−, PSA^−, and metastasizes to lymph node (LN), lung, and bone. Multiplexed sensors were selected to classify Tmet from Tnon-met (FIGS. 7A-7F). A substrate cleavage assay was performed (FIG. 12A) with several protease nanosensors (FIGS. 9A-9B and FIGS. 12A-12B).

serine hydrolase = system: serine hydrolase; parameters: species or system human
[3] = system: 22Rv1 cell line supernatant; assay: Cleavage of 19-plex fluorogenic ABNs in 22Rv1 supernatant; assay type: cell-based, human
tumor protease activity = assay: In vivo protease activity imaging study; parameters: species or system mice; settings: red-shifted FRET pair
[4] = system: 22Rv1 xenograft tumor homogenates; assay: Protease activity of tumor homogenates ex vivo; assay type: biochemical, mice
MMP activity = assay: FRET peptide substrate-cleavage assay in prostate tumor and NAT tissue samples; assay type: biochemical; settings: human prostate tumor and matched NAT
Protocol: An assay was developed to measure protease activity in tissue samples. The mouse samples were excised, frozen in LN2, homogenized in PBS at 200 mgs/mL, and incubated with Q7 (FIG. 14A). In situ tissue zymography assays were additionally developed for frozen sections. Five sets of clinical human samples (both tumor and normal adjacent) were examined (FIG. 14B). The remaining fraction was tested on FRET substrates. Human sample cleavage was analyzed with substrate cleavage assays (Table 3). It was observed that many substrates are differentially cleaved in cancer tissue versus normal adjacent tissue.
As MP ABPs are less robust than serine ABPs, a FRET peptide substrate-cleavage assay was used to assay for MMP activity in the same tissue set evaluated by SOMAscan. Given the minimal tissue material available, each sample was evaluated with only a subset of substrates in duplicate. Multiple substrates were cleaved to a greater extent in tumor samples.

22Rv1 xenografts = assay: Urinary reporter signal of ABNs in 22Rv1 xenograft-bearing mice; assay type: in vivo
[5] = PEG-coupled quenched substrate, protease that cleaves it

T39: uPA peptide substrate (GGGSGRSANAKG) of ABN library, reporter R3_09 (also: reporter R3_09 attached) [Substrate T39]
protease that cleaves the substrate in vitro [1]: uPA
cleavage by PC3 supernatant compared with 22Rv1 [2]: cleaved differentially
relative urine signal, PC3 compared with 22Rv1 (PC3 xenografts): higher relative urine signal change; also recorded: elevated
cleavage (individual reporter readout), PC3 relative to 22Rv1 (PC3 xenografts; three-plex iRGD-ABNs): significantly greater cleavage
classification of PC3-bearing from 22Rv1-bearing mice (PC3 xenografts; three-plex iRGD-ABNs): classified

PB2: protease nanosensor, uPA substrate, SEQ ID NO: 8 (Biotin-EGVNDNEEGFFSARKGGGSGRSANAKGC(PEG); reading uncertain; also: FAM label at residues 15-16, exact place not given here)
substrate specificity of nanosensor (MMP13, uPA, KLK, MMP): uPA substrate

NCCc1ccc(S(=O)(=O)F)cc1 [AEBSF]
effect of inhibitor on FP-TAMRA labeling (serine hydrolase): mitigated
overall cleavage activity in the presence of inhibitor [3]: reduced
overall cleavage activity in the presence of inhibitor [2]: reduced

(QSY21)-GGPLGVRGKK(Cy5)-(PEG2)-C (QSY21-GGPLGVRGKK(Cy5)[PEG2′]C) [red-shifted FRET paired T7 substrate]
fluorescence signal, tumor compared with liver (tumor protease activity): greater fluorescence signal in the tumor compared with the liver

PEG-T24-Q: quenched FRET peptide substrate T24 conjugated to PEG core (5FAM-GGLGPKGQTGK(CPQ2)[PEG2′]C; also: conjugated to PEG core, attachment not given here)
Top hit [1, 5]: MMP13

CNC(=O)[C@@H](NC(=O)[C@H](CC(C)C)[C@H](O)C(=O)NO)C(C)(C)C [marimastat]
overall cleavage activity in the presence of inhibitor [3]: reduced
overall cleavage activity in the presence of inhibitor [2]: reduced
T7 sensor cleavage in the presence of inhibitor [4]: diminished

PB13: protease nanosensor, broadly cleaved KLK substrate, SEQ ID NO: 9 (Biotin-EGVNDNEEGFFSARKGSGSKIIGGGC(PEG); reading uncertain; also: TAMRA at positions 15-16)
substrate specificity of nanosensor (MMP13, uPA, KLK, MMP): broadly cleaved KLK substrate

PEG-T39-Q: quenched FRET peptide substrate T39 conjugated to PEG core (5FAM-GGGSGRSANAKGK(CPQ2)[PEG2′]GC; also: conjugated to PEG core, attachment not given here)
Top hit [1, 5]: uPA

T7: MMP-sensing peptide substrate (GPLGVRGK) of ABN library, reporter R3_04 (also: reporter R3_04 attached) [Substrate T7]
cleavage signal, tumor vs NAT samples (MMP activity): signal was elevated across the majority of tumor samples
urine signal (22Rv1 xenografts; 19-plex library, 22Rv1 mice): gave rise to urine signals
urinary signal (22Rv1 xenografts; single sensor, biotinylated reporter, 22Rv1 xenograft-bearing mice): increased urinary signal
urine signal relative to control animals (22Rv1 xenografts; three-plex iRGD-ABNs, individual reporter, 22Rv1-bearing): elevated relative to control animals
urine signal (PC3 xenografts; 19-plex library, PC3 mice): gave rise to urine signals
classification of PC3-bearing from 22Rv1-bearing mice (PC3 xenografts; three-plex iRGD-ABNs): did not classify between the two cohorts
urine signal relative to control animals (PC3 xenografts; three-plex iRGD-ABNs, individual reporter, PC3-bearing): elevated relative to control animals

PEG-T7-Q: quenched FRET peptide substrate T7 conjugated to PEG core (5FAM-GGPLGVRGKK(CPQ2)[PEG2′]C; also: conjugated to PEG core, attachment not given here)
Second hit [1, 5]: MMP26
Top hit [1, 5]: MMP9

T24: MMP13 peptide substrate (GGLGPKGQTG) of ABN library, reporter R3_06 (also: reporter R3_06 attached) [Substrate T24]
protease that cleaves the substrate in vitro [1]: MMP13
cleavage by PC3 supernatant compared with 22Rv1 [2]: cleaved differentially
relative urine signal, PC3 compared with 22Rv1 (PC3 xenografts): higher relative urine signal change; also recorded: elevated
cleavage (individual reporter readout), PC3 relative to 22Rv1 (PC3 xenografts; three-plex iRGD-ABNs): significantly greater cleavage
classification of PC3-bearing from 22Rv1-bearing mice (PC3 xenografts; three-plex iRGD-ABNs): classified
